Reference: ChEMBL document CHEMBL5346923, “Novel pyridinium cationic pleuromutilin analogues overcoming bacterial multidrug resistance” (Eur J Med Chem, 2023)

How the values were obtained:
[1] = system: Staphylococcus aureus; experiment: Antibacterial activity against methicillin-resistant Staphylococcus aureus infected in rabbit RBC assessed as reduction in alpha-heamolysin at 1 times of MIC by absorbance based analysis; assay type: functional, Erythrocyte; set-up: scale not given: the % may be the effect or the level left
[2] = system: Staphylococcus aureus; experiment: Antibacterial activity against methicillin-resistant Staphylococcus aureus infected in rabbit RBC assessed as reduction in alpha-heamolysin at 0.5 times of MIC by absorbance based analysis; assay type: functional, Erythrocyte; set-up: scale not given: the % may be the effect or the level left
[3] = system: Staphylococcus aureus; experiment: Antibacterial activity against methicillin-resistant Staphylococcus aureus infected in rabbit RBC assessed as reduction in alpha-heamolysin by absorbance based analysis; assay type: functional, organism-based; settings: Erythrocyte
[4] = system: Staphylococcus aureus; experiment: Antibacterial activity against methicillin-resistant Staphylococcus aureus infected in rabbit RBC assessed as reduction in alpha-heamolysin at 0.25 times of MIC by absorbance based analysis; assay type: functional, Erythrocyte; set-up: scale not given: the % may be the effect or the level left

C=C[C@]1(C)C[C@@H](OC(=O)CSc2cc[n+](CCCCCCC)cc2)[C@]2(C)[C@H](C)CC[C@]3(CCC(=O)[C@H]32)[C@@H](C)[C@@H]1O.[I-]
Activity [1]: 93%
Activity [2]: 34%
Activity [3]: Dose-Dependent Effect
Activity [4]: 25%
